Each structure is given as a SMILES string. pIC50, pKi: −log10 of the molar value. “And” between values parts separate entries of the source, which are not always exact repeats. Equal values may be shown once.

Data set [1] in a line: kinact was determined; NTD = Not time dependent. In kind it is ADME.
Data set [2] in a line: Half-life period of the compound; NTD = Not time dependent. The data set is classed as ADME.
Data set [3] has as its target T1, Aromatase (Homo sapiens, UniProt P11511).
T1 sequence (P11511 whole entry): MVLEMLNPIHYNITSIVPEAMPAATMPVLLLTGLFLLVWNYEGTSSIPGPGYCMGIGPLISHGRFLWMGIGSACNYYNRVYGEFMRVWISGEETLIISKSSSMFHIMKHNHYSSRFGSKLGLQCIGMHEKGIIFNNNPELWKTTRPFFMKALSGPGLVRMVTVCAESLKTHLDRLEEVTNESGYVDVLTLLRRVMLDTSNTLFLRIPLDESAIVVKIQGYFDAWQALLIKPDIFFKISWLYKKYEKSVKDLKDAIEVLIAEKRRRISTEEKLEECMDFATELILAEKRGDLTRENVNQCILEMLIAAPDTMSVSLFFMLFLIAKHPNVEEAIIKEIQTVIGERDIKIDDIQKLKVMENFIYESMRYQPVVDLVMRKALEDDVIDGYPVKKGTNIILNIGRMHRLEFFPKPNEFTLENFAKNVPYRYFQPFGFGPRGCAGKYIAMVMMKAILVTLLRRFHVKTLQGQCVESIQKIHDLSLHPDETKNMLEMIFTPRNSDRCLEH
Briefly: Inhibition of cytochrome P450 19A1.

The nature of data set [4]: kinact was determined. The data set is classed as ADME.
Data set [5] has as its target T1, Aromatase. Put plainly: Inhibition of Cytochrome P450 19A1.
Data set [6] concerns the target T1, Aromatase. Briefly: Inhibition constant for human placental Cytochrome P450 19A1.
The target of data set [7] is T1, Aromatase. Briefly: Inhibition constant for human placental cytochrome P450 19A1.
Data set [8] addresses T1, Aromatase. Briefly: Percent cytochrome P450 19A1 activity remaining after pretreatment with 0.5 uM androstenedione (t=0 control).
The target in data set [9] is T1, Aromatase. Put plainly: Percent cytochrome P450 19A1 activity remaining after 10 minute pretreatment with 0.5 uM androstenedione.
Data set [10] concerns the target T1, Aromatase. Put plainly: Percent cytochrome P450 19A1 activity remaining after 5 minute pretreatment with 0.5 uM androstenedione.
Data set [11] concerns the target T1, Aromatase. Put plainly: Percent cytochrome P450 19A1 activity remaining after pretreatment with 1 uM androstenedione (t=0 control).
Data set [12] addresses T1, Aromatase. Briefly: Percent cytochrome P450 19A1 activity remaining after 10 minute pretreatment with 1 uM androstenedione.
Data set [13] addresses T1, Aromatase. Put plainly: Percent cytochrome P450 19A1 activity remaining after 5 minute pretreatment with 1 uM androstenedione.
The target of data set [14] is T1, Aromatase. Briefly: Percent cytochrome P450 19A1 activity remaining after 10 minute pretreatment with 0.5 mM beta-mercaptoethanol.
The target of data set [15] is T1, Aromatase. Briefly: Percent cytochrome P450 19A1 activity remaining after 5 minute pretreatment with 10 mM beta-mercaptoethanol.

On to `C[C@]12CCC(=O)C(SC(F)F)=C1CC[C@@H]1[C@@H]2CC[C@]2(C)C(=O)CC[C@@H]12`, for which, in [1], the K inact result was “Not time-dependent”. Moreover, the T1/2 result in data set [2] was “Not time-dependent”. The pIC50 (in general, the IC50 on a negative log10 scale, so that one unit is a factor of ten) at Aromatase [3] was 5.57.

Regarding `C[C@]12CCC(=O)C(SCC#N)=C1CC[C@@H]1[C@@H]2CC[C@]2(C)C(=O)CC[C@@H]12`, the K inact in data set [4] was 1.2 10e-3 s-1. Also, the pIC50 against Aromatase [5] was 5.43. For the same compound, the pKi – broadly, the negative decadic logarithm of the Ki, by convention in mol/L – at Aromatase [6] is 6.77.

As for `C[C@]12CCC(=O)C(O)=C1CCC1C2=CC[C@]2(C)C(=O)CCC12` (stereo partly specified), the pIC50 on Aromatase [3] was 6.46.

At Aromatase [5], `C[C@]12CCC(=O)C(S)=C1CCC1C2CC[C@]2(C)C(=O)CCC12` (stereo partly specified) had a pIC50 of 5.46.

Take `COCOC1=C2CCC3C(CC[C@]4(C)C(=O)CCC34)[C@@]2(C)CCC1=O` (stereo partly specified): the K inact entry in [4] is “Not time-dependent”. At Aromatase [3], the negative logarithm of the IC50 (pIC50) is 5.36.

For the compound `COCSC1=C2CCC3C(CC[C@]4(C)C(=O)CCC34)[C@@]2(C)CCC1=O` (stereo partly specified), the K inact result in [4] is “Not time-dependent”. At Aromatase [3], the negative logarithm of the IC50 (pIC50) was 5.00.

Regarding `CSC1=C2CCC3C(CC[C@]4(C)C(=O)CCC34)[C@@]2(C)CCC1=O` (stereo partly specified), in data set [1], the K inact result is reported as “Not time-dependent”. In addition, in data set [2], the T1/2 entry is on record as “Not time-dependent”. The compound also gave a pIC50 on Aromatase [3] of 5.36.

With `CSCSC1=C2CCC3C(CC[C@]4(C)C(=O)CCC34)[C@@]2(C)CCC1=O` (stereo partly specified), the K inact result in [1] was “Not time-dependent”. In data set [2], the T1/2 result is recorded as “Not time-dependent”. At Aromatase [3], this compound gave a pIC50 of 5.92.

For `C[C@]12CCC(=O)C(SCCl)=C1CCC1C2CC[C@]2(C)C(=O)CCC12` (stereo partly specified), the K inact in data set [4] is given as 3.8 10e-3 s-1. On Aromatase [3], the pIC50 was 6.03. Moreover, at Aromatase [7], the pKi was 7.52. In addition, the Activity at Aromatase [8] was 49%; at Aromatase [9] it was 36.5% and 46%; at Aromatase [10], 70%; at Aromatase [11], 9.8%; at Aromatase [12], 10.2%; at Aromatase [13] it was 32% and 36.8%. Moreover, the Activity on Aromatase [14] is 59%; at Aromatase [15], 5%.

On to `C[C@]12CCC(=O)C(S)=C1CCC1C2=CC[C@]2(C)C(=O)CCC12` (stereo partly specified), for which the K inact in [4] is listed as 3.9 10e-3 s-1. The compound further showed a pIC50 against Aromatase [3] of 5.42. This compound showed a pKi on Aromatase [7] of 7.14.

Turning to `C[C@]12CCC(=O)C(SCF)=C1CCC1C2CC[C@]2(C)C(=O)CCC12` (stereo partly specified), in data set [4], the K inact is 3.1 10e-3 s-1. This compound showed a pIC50 against Aromatase [5] of 6.10. In addition, on Aromatase [6], the pKi was 7.52.

As to `C[C@]12CCC(=O)C(SCCl)=C1CCC1C2=CC[C@]2(C)C(=O)CCC12` (stereo partly specified), the K inact in [4] is 4.8 10e-3 s-1. Besides, on Aromatase [3], the pIC50 is 6.07. For the same compound, the pKi at Aromatase [7] was 7.57.

On to `C[C@]12CCC(=O)C(O)=C1CC[C@@H]1[C@@H]2CC[C@]2(C)C(=O)CC[C@@H]12` [FORMESTANE], for which the K inact in [4] is reported as 2.3 10e-3 s-1. The compound also had a pIC50 against Aromatase [3] of 6.43. Further, the pKi on Aromatase [7] is 7.57.

For the origin of these results see ChEMBL document CHEMBL1125454, “Synthesis and evaluation of a new series of mechanism-based aromatase inhibitors” (J Med Chem, 1992).
